In PMC2033546, “Effects of somatostatin analogue RC-160 and bombesin/gastrin-releasing peptide antagonists on the growth of human small-cell and non-small-cell lung carcinomas in nude mice” (British Journal of Cancer, 1994):
Bridges are numbered along the chain shown (N, C = ends). Where no end group is shown, it is not given here.

Experiments:
EGF receptors = settings: various cancer lines and cancer specimens; ref Liebow et al., 1992; cited from earlier work
Description: (§1) Br. J. Cancer (1994). 70, 886 892 ? Macmillan Press Ltd..

human SCLC cell line H69 = experiment: [3H]Thymidine incorporation assay in H69 cells; assay type: cell-based; settings: 3 days; for [3H]thymidine incorporation into DNA of H69 cells (in words): RC-160 0.001 to 10.0 µg/ml, 5 days, RC-3005 or RC-3009 5.0 and 25.0 µg/ml; for [3H]Thymidine incorporation: Table V, mean s.e.
Description: (§2) Br. J. Cancer (1994). 70, 886 892 ? Macmillan Press Ltd.. […] Bombesin GRP antagonists. […] Lung carcinoma is the leading cause of cancer-related deaths in the western world. It is estimated that in 1992 there were approximately 168,000 new cases of lung cancer in the US and that about 146,000 deaths occurred from this disease (Boring et al., 1992). […] The growth factors such as bombesin/gastrin-releasing pep- tide (GRP), epidermal growth factor, (EGF), transforming growth factor a (TGF-x) and insulin-like growth factor I(IGF-I) appear to play a role in the proliferation and pro- gression of lung cancer (Cuttitta et al., 1985; Veale et al., 1987; Minuto et al., 1988; Siegfried & Owens, 1988; Macaulay et al., 1990; Tateishi et al., 1991; Damstrup et al., 1992; Sethi & Rozengurt, 1992; Rabiasz et al., 1992; Moody & Cuttitta, 1993). […] Tpi is 2,3,4,9-tetrahydro- Correspondence: A.V. Schally (151). VA Medical Center, 1601 Per- dido Street. New Orleans, LA 70146. USA. Received 1 March 1994; and in revised form 5 July 1994. Br. J. Cancer (1994), 70, 886-892 C Macmillan Press Ltd., 1994 PEPTIDE ANALOGUES IN LUNG CANCER 8U7 lH-pyrido [3,4bjindol-3-carboxylic acid, a conformationally constrained secondary amine derivate of tryptophan and Tac is thiazolidine-4-carboxylic acid. […] Animals Male athymic NCr nulmu nude mice, approximately 6 weeks old on arrival, were obtained from the NCI (Bethesda, MD, USA) and maintained under pathogen-limited conditions. Cell lines The human SCLC cell line NCI-H69, was obtained from the American Type Cell Culture (ATCC), Rockville, MD, USA and the non-SCLC cell line NCI-H157, from Dr H. Oie, NCI-Navy Medical Oncology Branch, Bethesda, MD, USA. These cell lines were cultured in RPMI-1640 medium supple- mented with 4 mM L-glutamine, 50 units ml-I penicilln G sodium, SOigml-' streptomycin sulphate, 0.125pgml-' amphotericin B and 10% fetal bovine serum at 3TC in a humidified 95% air/5% carbon dioxide atmosphere. CeLs were passaged weekly and routinely monitored for myco- plasma contamination using a detection kit (Boehringer- Mannheim, Mannheim, Germany). All culture media com- ponents were purchased from Gibco (Grand Island, NY, USA). Receptor assays Preparation of membranes for receptor studies was described previously (Halmos et al., 1993). Iodinated EGF and IGF-I were purchased from Amersham (Arlington Heights, IL, USA). Radioiodination of other peptides and receptor bind- ing of EGF, IGF-I, somatostatin and bombesin/GRP were performed as previously described (Srkalovic et al., 1989; Szepeshazi et al., 1992). Complete displacement assays on tumour membranes were done only once because of the shortage of tumour material. The LIGAND PC computerised curve-fitting programme of Munson and Rodbard (1980) was used to determine the types of receptor binding, dissociation constant (Kd) values, and the maximal binding capacity (BDj) of receptors. In order to determine the specificity of the binding sites for radiolabelled EGF, IGF-I, somatostatin and bombesin to lung cancer membranes, various structuraly related and unrelated peptides were tested for their ability to inhibit the binding of the tracers. Histological procedure The histological procedures were the same as described previously (Szepeshazi et al., 1991, 1992). The number of mitotic and apoptotic cells per 1,000 cells was determined, and the percentage area of necrosis in tumour sections was examined using the point-counting method (Szepeshazi et al., 1991, 1992), in which the crossing points of an ocular net that coincide with necrosis in various sections are counted. Radiommunoassays Serum levels of growth hormone were determined by double- antibody radioimmunoassay (RIA) using materials supplied by the National Hormone and Pituitary Program of the National Institute of Diabetes and Digestive and Kidney Diseases (NIDDK).

[1] = test system: MIA PaCa-2 human pancreatic cancer cell line; settings: ref Liebow et al., 1989; cited from earlier work
Description: as §1

[2] = test system: Bombesin/GRP receptors in membranes of SCLC H69 tumours; experiment: Bombesin/GRP receptor binding on H69 tumour membranes after in vivo treatment; set-up: species or system human; settings: for Concentration of receptors for bombesin/GRP on H69 tumours (in words): after in vivo treatment
Description: as §2, with “In order to determine the specificity of the binding sites for radiolabelled EGF, IGF-I, somatostatin and bombesin to lung cancer membranes, various structuraly related and unrelated peptides were tested for their ability to inhibit the binding of the tracers. Histological procedure The histological procedures were the same as described previously (Szepeshazi et al., 1991, 1992).” left out

[3] = test system: Somatostatin receptors in membranes of SCLC H69 tumours; experiment: Somatostatin receptor binding on H69 tumour membranes after in vivo treatment; set-up: species or system human; settings: Table IV, Experiment I (SCLC-H69); tumour membranes after in vivo treatment; control 450; done once
Description: as §2, with “In order to determine the specificity of the binding sites for radiolabelled EGF, IGF-I, somatostatin and bombesin to lung cancer membranes, various structuraly related and unrelated peptides were tested for their ability to inhibit the binding of the tracers. Histological procedure The histological procedures were the same as described previously (Szepeshazi et al., 1991, 1992).” left out

[4] = test system: IGF-I receptors in membranes of SCLC H69 tumours; experiment: IGF-I receptor binding on H69 tumour membranes after in vivo treatment; set-up: species or system human; settings: Table IV, Experiment I (SCLC-H69), control 294, done once
Description: as §2, with “Receptor assays Preparation of membranes for receptor studies was described previously (Halmos et al., 1993). Iodinated EGF and IGF-I were purchased from Amersham (Arlington Heights, IL, USA). Radioiodination of other peptides and receptor bind- ing of EGF, IGF-I, somatostatin and bombesin/GRP were performed as previously described (Srkalovic et al., 1989; Szepeshazi et al., 1992). Complete displacement assays on tumour membranes were done only once because of the shortage of tumour material. The LIGAND PC computerised curve-fitting programme of Munson and Rodbard (1980) was used to determine the types of receptor binding, dissociation constant (Kd) values, and the maximal binding capacity (BDj) of receptors. In order to determine the specificity of the binding sites for radiolabelled EGF, IGF-I, somatostatin and bombesin to lung cancer membranes, various structuraly related and unrelated peptides were tested for their ability to inhibit the binding of the tracers. Histological procedure The histological procedures were the same as described previously (Szepeshazi et al., 1991, 1992).” left out

SCLC H69 tumours = experiment: Histology (mitosis, apoptosis, necrosis) of SCLC H69 tumours; assay type: in vivo, human (xenograft in nude mice)
Description: as §2

[5] = test system: human SCLC cell line NCI-H69; experiment: Growth of H69 SCLC xenografts in nude mice; assay type: in vivo, human (xenograft in male athymic nude mice); settings: for Tumour weight: antagonists 20 µg/day per animal, control 0.27 ? 0.19; for Tumour doubling time: antagonists 20 µg/day per animal s.c., control 7.5; for Growth of H69 SCLC tumours (in words): s.c. peritumorally, bombesin/GRP antagonists 20 µg per animal per day
Description: as §2

[6] = test system: EGF receptors in membranes of SCLC H69 tumours; experiment: EGF receptor binding on H69 tumour membranes after in vivo treatment; set-up: species or system human; settings: Table IV, Experiment I (SCLC-H69); tumour membranes after in vivo treatment; control 278; ten-point displacement in triplicate tubes, done once
Description: as §2, with “In order to determine the specificity of the binding sites for radiolabelled EGF, IGF-I, somatostatin and bombesin to lung cancer membranes, various structuraly related and unrelated peptides were tested for their ability to inhibit the binding of the tracers. Histological procedure The histological procedures were the same as described previously (Szepeshazi et al., 1991, 1992).” left out

[7] = Serum gastrin radioimmunoassay in nude mice; assay type: in vivo; settings: Table III, Experiment I (SCLC H-69), after treatment; double-antibody RIA; control 130.0 ? 10.8; means ? s.e.; **P < 0.01 vs control
[8] = Body weight of tumour-bearing nude mice; settings: Table I, Experiment I (SCLC-H69), end of experiment; control 26.3 ? 2.3; means ? s.d.
Description: Br. J. Cancer (1994). 70, 886 892 ? Macmillan Press Ltd.. […] Bombesin GRP antagonists. […] Lung carcinoma is the leading cause of cancer-related deaths in the western world. It is estimated that in 1992 there were approximately 168,000 new cases of lung cancer in the US and that about 146,000 deaths occurred from this disease (Boring et al., 1992). […] CeLs were passaged weekly and routinely monitored for myco- plasma contamination using a detection kit (Boehringer- Mannheim, Mannheim, Germany). […] The number of mitotic and apoptotic cells per 1,000 cells was determined, and the percentage area of necrosis in tumour sections was examined using the point-counting method (Szepeshazi et al., 1991, 1992), in which the crossing points of an ocular net that coincide with necrosis in various sections are counted. Radiommunoassays Serum levels of growth hormone were determined by double- antibody radioimmunoassay (RIA) using materials supplied by the National Hormone and Pituitary Program of the National Institute of Diabetes and Digestive and Kidney Diseases (NIDDK).

IGF-I levels = settings: patients with SCLC; ref Macauley et al. (1991); cited from earlier work
Description: as §1

[9] = H69 SCLC xenografts, as compared with control group, RC-160 100 µg, RC-3950-II 20 µg per animal per day s.c. peritumorally, 5 weeks
[10] = Table I, Experiment I (SCLC-H69), 5 weeks s.c. peritumoral, RC-160 100 µg/day, means ? s.d., *P<0.05 vs control
[11] = Table I, Experiment I (SCLC-H69), 5 weeks, RC-160 100 µg/day

Q: For “gastrin-releasing peptide (VPLPAGGGTVLTKMYPRGNHWAVGHLM; ends and bridges not checked; UniProt P07492 24-50, looked up) [GRP]”, which “Effect on phosphorylation of EGF receptors (in words)” value (EGF receptors) is on record?
A: enhance the phosphorylation of EGF receptors

Q: Which “[3H]thymidine incorporation into DNA of H69 cells (in words)” value (human SCLC cell line H69) does the source give for “His(Bz)2D, D-Trp23, D-Phe2, Leu'- GRP(14-27) [RC-3005]” here?
A: significantly suppressed

Q: And the “[3H]Thymidine incorporation” value (human SCLC cell line H69; 1.0 µg/ml)?
A: 100.0 2.0 per cent of control

Q: Which results are given for “somatostatin: native peptide somatostatin (AGCKNFFWKTFTSC; disulfide 3-14; ends not checked; UniProt P61278 103-116, looked up) [reference compound]”?
A: Effect on EGF-stimulated cell growth (in words) [1]: reversed the stimulatory effect of EGF; Effect on EGF-stimulated phosphorylation of the tyrosine kinase domain of the EGF receptors (in words) [1]: reversed the stimulatory effect of EGF

Q: Which “Concentration of receptors for bombesin/GRP on H69 tumours (in words)” value [2] does the source give for “[D-Phe6, Leu'3*(CH,N)Tac'1 bombesin (6-14) [RC-3950-II]” here?
A: reduced to non-detectable levels

Q: And the “Somatostatin maximal binding capacity (Bmax)” value [3]?
A: 390 fmol mg-'protein

Q: What about the “IGF-I maximal binding capacity (Bmax)” value [4] of the same substance?
A: 226 fmol mg' protein

Q: What about the “Extent of necrosis (in words)” value (SCLC H69 tumours; SCLC H69 tumours, point-counting method, differences from control not significant statistically) of the same substance?
A: less exten- sive

Q: And the Apoptotic index (SCLC H69 tumours; Table II, Experiment I (SCLC H69), apoptotic cells per 1,000 cells, control 35.4 ? 2.6, means ? s.e.)?
A: 41.5

Q: And the Mitotic index (SCLC H69 tumours; Table II, Experiment I (SCLC H69), mitotic cells per 1,000 cells, control 37.9 ? 2.9, means ? s.e., *P < 0.05 vs control)?
A: 49.8

Q: What about the “Reduction in tumour volumes” value [5, 9] of the same substance?
A: more than 80%

Q: What about the “Reduction in tumour weights” value [5, 9] of the same substance?
A: more than 80%

Q: And the Tumour weight [5, 10]?
A: 0.03 0.03* g

Q: What about the Tumour doubling time [5, 11] of the same substance?
A: 16.8 days

Q: And the “Growth of H69 SCLC tumours (in words)” value ([5]; RC-160 100 µg, 5 weeks)?
A: greatest inhibitory effect

Q: And the “EGF maximal binding capacity (Bmax)” value [6]?
A: 93 fmol mg' protein

Q: Which “[3H]thymidine incorporation into DNA of H69 cells (in words)” value (human SCLC cell line H69) does the source give for “D-Trp23, D-Phe5, Leu27- GRP(14-27) [RC-3009]” here?
A: significantly suppressed

Q: What about the “[3H]Thymidine incorporation” value (human SCLC cell line H69; 1.0 µg/ml) of the same substance?
A: 98.4 0.8 per cent of control

Q: What about the “[3H]Thymidine incorporation” value (human SCLC cell line H69; 5.0 µg/ml, *P<0.05 vs control) of the same substance?
A: 92.7 2.0* per cent of control

Q: For “[Tpi6, Leu'3*(CH2N)Tpi'4 bombesin (6-16) [RC-3440]”, which “Bombesin/GRP maximal binding capacity (Bmax)” value ([2]; Table IV, Experiment I (SCLC-H69), tumour membranes after in vivo treatment, control 420, done once) is on record?
A: 255 fmol mg-'protein

Q: And the “Concentration of receptors for bombesin/GRP on H69 tumours (in words)” value [2]?
A: markedly dereased

Q: What about the Serum gastrin [7] of the same substance?
A: 92.7 8.2 pg ml'

Q: And the “Somatostatin maximal binding capacity (Bmax)” value [3]?
A: 501 fmol mg-'protein

Q: What about the Body weight [8] of the same substance?
A: 26.2 ± 1.3 g

Q: And the “IGF-I maximal binding capacity (Bmax)” value [4]?
A: 255 fmol mg' protein

Q: What about the Tumour volume, final ([5]; Table I, Experiment I (SCLC-H69), 5 weeks s.c. peritumoral, RC-160 100 µg/day, RC-3440, RC-3095, RC-3950-II 20 µg/day per animal, control 249.7 ? 182.3, means ? s.d., ten animals per group, *P<0.05 vs control) of the same substance?
A: 74.1 mm³

Q: And the Tumour weight [5, 10]?
A: 0.076 ± 0.04* g

Q: And the Tumour doubling time [5, 11]?
A: 12.1 days

Q: And the “Growth of H69 SCLC tumours (in words)” value ([5]; RC-160 100 µg, 5 weeks)?
A: inhibited the growth of H69 SCLC tumours

Q: And the “EGF maximal binding capacity (Bmax)” value [6]?
A: 134 fmol mg' protein

Q: For octreotide, which “IGF-I levels (in words)” value (IGF-I levels) is on record?
A: reduced IGF-I levels
